Results reported in patent USRE46907E1, “Suppression of cancer growth and metastasis using nordihydroguaiaretic acid derivatives with metabolic modulators” (THE JOHNS HOPKINS UNIVERSITY, priority 2008, dated 2018).

Experiments:
67NR cells = test: TUNEL apoptosis assay in 67NR cells; assay type: cell-based, mouse; settings: 48 hr after treatment, M4N 80 μM
Description: (§1) Cell Culture Either cell line 4T1 or 67NR was a gift from Dr. Miller (20). The cells were cultured in RPMI1640 medium supplemented with glucose (14 mM), pyruvate (1 mM), penicillin (100 units/ml), streptomycin (100 μg/ml), and fetal bovine serum (10%), buffered with 25 mM HEPES (pH 7.4). LNCaP human prostate cancer cell line was purchased from American Type Culture Collection (Manassas, Va.). The cell line was cultured in RPMI1640 medium supplemented with glucose (14 mM), pyruvate (1 mM), penicillin (100 units/ml), streptomycin (100 μg/ml), and fetal bovine serum (10%). Drugs were dissolved in dimethyl sulfoxide (DMSO) at a suitable concentration so that the final concentration of DMSO in the medium was less than 0.1%.
Apoptosis assay: Simple TLTNEL assay was conducted by using TUNEL apoptosis detection kit (Upstate, Temecula, Calif.) with some modification. For the evaluation of the effect of PKCδ wild type and dominant negative vectors on TUNEL-positive cell death, we first transfected 4T1 or 67NR cells with these vectors by effectene (Qiagen, Valencia, Calif.). Wild type PKCδ vector is constructed from wild type PKCδ gene and pEGFP (Promega, Madison, Wis.). Dominant negative PKCδ vector is constructed from PKCδ gene mutated at a 376th amino acid residue (threonine) and pEGFP (Promega, Madison, Wis.) This threonine residue is located in ATP-binding domain of protein kinase Cδ, and therefore essential for any kinase reaction of the protein so that this mutant protein supposedly function as dominant negative. As a control we used pEGFP-N3 vector was used. These vectors contain green fluorescent protein (GFP) gene to be used as a transfection marker. The vectors are kind gifts from Dr. Yuspa (National Institutes of Health, Bethesda, Md.) (88). Twenty four hours after transfection, the cells were treated with M4N, Rottlerin, or Ly294002. Then 24 hrs after this treatment with these reagents, the cells were fixed with 10% formaldehyde in phosphate buffered saline without calcium and magnesium (PBS (−)). The cells were then incubated with rabbit anti-GFP antibody (MBL International, Woburn, Mass.) followed by treatment with anti-rabbit IgG antibody conjugated with fluorescein (Promega, Madison, Wis.). TUNEL staining was conducted by using TUNEL apoptosis detection kit (Upstate, Temecula, Calif.) except for using Streptavidin-Alexa Fluor 568 (Molecular Probes, Eugene, Oreg.) instead of Avidine-Rhodamine contained in the kit. Cell death was evaluated by dividing the number of TUNEL-positive cells among the cells positive with anti-GFP staining by the number of these GFP-positive cells.

[1] = tested on: PDK-1/Akt pathway-related proteins; test: Western blotting of PDK-1/Akt pathway-related proteins in 4T1 cells; assay type: cell-based, mouse; settings: 4T1, 5 hrs after treatment
Description: (§2) Western blotting: After cells had been grown in […] flasks and treated with reagents, the cells were washed with PBS (−) three times and suspended in RIP A buffer (150 mM NaCl, 50 mM Tris-HCl (pH 8,0), 0.1% SDS, 1% NP40, and 0.5% deoxycholate) supplemented with protease inhibitor cocktail (Calbiochem, San Diego, Calif.). The sample volumes were adjusted by the total protein amount. Protein assay was performed by Bio-Rad Protein Assay (Bio-Rad Laboratories, Inc. Hercules, Calif.). The samples were resolved by the standard SDS-polyacrylamide gel electrophoresis and transferred to nitrocellulose membrane (Amersham Biosciences, Bjorkgatan, Sweden). The membranes were blocked with skim milk, and incubated with primary antibodies at 4° C. overnight and then with secondary antibody conjugated with horse radish peroxidase at room temperature for 2 hrs. The signals were detected by western blot chemiluminescence reagent plus (New England Nuclear Life Science Products, Boston, Mass.).

[2] = tested on: PDK-1/Akt pathway-related proteins; test: Western blotting of PDK-1/Akt pathway-related proteins in 67NR cells; assay type: cell-based, mouse; settings: 5 hrs after treatment
Description: as §2

caspase-9 = test: Western blotting of caspase-9 cleavage in 67NR cells; assay type: cell-based, mouse; settings: 5 hrs, Rottlerin 5 μM, M4N 80 μM
Description: as §2

4T1 cells = test: 4T1 tumor-bearing Balb/c mice (life-span, tumor size); assay type: in vivo, mouse; settings: 5×10^4 cells, M4N 1 mg/shot, Rottlerin 100 μg/shot, three days a week from day 7
Description: Animals: Female Balb/e mice were obtained from Charles River Laboratories (Wilmington, Mass.). M4N and Rottlerin were dissolved into a solvent, CPE (25/30) solvent system supplied by Erimos Pharmaceutical, L.L.C. (Raleigh, N.C.) and injected into mice either intravenously or intraperitoneally, T-cell deficient male nude mice (nu/nu) were obtained from Charles River Laboratories (Wilmington, Mass.). M4N and Ly294002 were dissolved into a solvent, CPE (25/30) solvent system supplied by Erimos Pharmaceutical, L.L.C. (Raleigh, N.C.) and injected into mice intravenously.
Tumor inoculation: Either 4T1 or 67NR cells were grown as described above. Cells growing subconfluently were collected and resuspended into the tissue culture medium minus fetal bovine serum and antibiotics, After counting the number of the cells, the cell concentration was adjusted. Twenty μl of the solution containing a selected number of cancer cells (either 5×10^3 or 5×10^4 cells) was injected into each fat pad of a pair of mammary glands located close to lower limbs. Tumor size was measured by weighing tumors extracted from mouse cadavers.

[3] = tested on: LNCaP human prostate cancer cells; test: MTT cell growth assay in LNCaP cells; assay type: cell-based; settings: 24 hrs, M4N 80 μM, Ro 5 μM, Ly 20 μM
Description: as §1
MTT assay: Cells were incubated in PBS (−) supplemented with 5% fetal calf serum and 0.5 mg/ml MTT, 3-(4,5-Dimethylthiazol-2-yl)-2,5-diphenyltetrazolium bromide (Sigma, Saint Louis, Mo.) for 2 hrs. After the incubation, the cells were dissolved in dimethyl sulfoxide and the color of the solutions was measured by a spectrophotometer at wavelengths of 540 and 690 nm. The values correlated with viable cell numbers were obtained by subtracting the optical density at 690 nm from that, at 540 nm.

PKCδ = test: Immunocytochemistry of PKCδ cellular localization in LNCaP cells; assay type: cell-based, human; settings: 5 hrs
Description: Immunocytocheimstry: Cells were cultured on glass cover slips coated with poly-L-ornithine (Sigma, Saint Louis, Mo.). At 5 hrs after treatment with drugs, the cells were fixed with 10% formaldehyde in diluted in PBS (−) and washed with PBS (−) three times. After permeabilized by 0.2% Tryton X-100 and 1% goat serum diluted in PBS (−), the cells were blocked by PBS (−) containing 5% goat serum. The cells were then incubated with primary antibodies diluted in PBS (−) containing 0.5% bovine serum albumin (BSA), and with secondary antibodies, which is either anti-IgG conjugated with fluorescein (Vector Laboratories. Burlingame, Calif.), diluted in PBS (−) containing 0.5% BSA. The cells were observed through Zeiss fluorescent microscope (Carl Zeiss, Thornwood, N.Y.).

HIF = test: Western blotting of HIF in 67NR cells; assay type: cell-based, mouse; settings: M4N 80 μM
Description: as §2

[4] = cited from earlier work

## COc1ccc(C[C@@H](C)[C@@H](C)Cc2ccc(OC)c(OC)c2)cc1OC [M4N, tetra-O-methyl nordihydroguaiaretic acid]
67NR cells
  TUNEL-positive cell death: more cell death in 67NR cells than 4T1 cells
[1]
  total Akt expression: not changed much
[1]; M4N 80 μM, Desferoxamine 75 or 150 μM
  expression of phosphorylated PDK (Ser241), Akt (Ser473), PRAS40 (Thr246), Raf (Ser259), MEK (Ser217/221): not much effect
[2]
  total Akt expression: not changed much
[2]; M4N 80 μM
  expression of phosphorylated PDK (Ser241), Akt (Ser473), PRAS40 (Thr246), Raf (Ser259), MEK (Ser217/221): significant reduction
caspase-9
  caspase-9 activation (cleavage): slightly further augmented
4T1 cells
  life-span of 4T1-bearing mice: didn't extend the life-span
[3]
  cell growth (MTT): able to reduce cell growth almost as much as a combination treatment
PKCδ
  expression and nuclear level of total PKCδ: Neither M4N, Ro, nor Ly treatment caused any remarkable change
  nuclear expression of phosphor-PKCδ (Thr507): augmented
HIF
  effect on Desferoxamine-mediated HIF induction: instead enhanced
[4]; mouse, in vivo, po
  toxic effects after oral administration: essentially no toxic effects
[4]; oral administration, short term and long term feeding
  M4N concentration retained in mouse organs: ≤ 906 μg/g of tissue
